# Reference: ChEMBL document CHEMBL5729105, “CD73 inhibitors” (2022)
# Biological target: 5'-nucleotidase (Homo sapiens, UniProt P21589)
# Experiment: Biochemical Assay: Assay Reaction ConditionsAssay Volume: 70 μlReaction Volume: 50 μlCD73: 0.3208 nMAMP: 15 μMAssay Buffer: 25 mM Tris-HCL, pH 7.4, 0.01% Brij-35, 0.01% BSA, 5 mM MgCl2Assay Procedure:Used 384 clear plate.Made dose titration of testing compounds in assay buffer, 10 points ½ log titrations in duplicates starting at 100 μM.Added 25 μl of CD73 to each well for a final concentration of 320 pM.Incubated at RT for 15 min.Added 25 μl of AMP to each well for a final concentration of 15 μM.Incubated at RT for 10 min.Added 10 μl of Malachite Green Reagent A, incubate at RT for 10 min.Added 10 of Malachite Green Reagent B, incubate at RT for 45 min.Read the Absorbance on Envision plate reader using excitation filter: Cy5 620 nM.The ability of the compounds disclosed herein to inhibit CD73 activity was quantified and the respective IC50 values were determined.
# Sequence of 5'-nucleotidase (P21589 whole entry): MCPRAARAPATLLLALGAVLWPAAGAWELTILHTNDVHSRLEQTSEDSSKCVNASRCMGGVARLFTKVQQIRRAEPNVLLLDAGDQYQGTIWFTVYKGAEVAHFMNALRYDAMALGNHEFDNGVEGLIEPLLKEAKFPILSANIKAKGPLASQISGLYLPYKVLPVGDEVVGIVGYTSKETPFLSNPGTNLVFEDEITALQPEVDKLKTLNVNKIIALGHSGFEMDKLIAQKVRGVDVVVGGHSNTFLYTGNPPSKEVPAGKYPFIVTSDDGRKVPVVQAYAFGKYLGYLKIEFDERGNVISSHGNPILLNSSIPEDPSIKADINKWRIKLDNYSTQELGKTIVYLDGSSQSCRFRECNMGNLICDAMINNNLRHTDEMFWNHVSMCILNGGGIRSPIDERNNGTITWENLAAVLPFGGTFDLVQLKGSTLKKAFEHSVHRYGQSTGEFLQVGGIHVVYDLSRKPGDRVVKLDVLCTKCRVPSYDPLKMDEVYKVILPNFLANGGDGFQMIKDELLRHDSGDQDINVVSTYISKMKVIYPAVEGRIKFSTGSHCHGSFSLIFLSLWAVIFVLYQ
smiles,measurement,value
"O=P(O)(O)[C@H](CO)OC[C@H]1O[C@@H](n2ncc3c(NC4CCCC4)nc(Cl)nc32)[C@H](O)[C@@H]1O (single isomer, unassigned)",IC50,< 100 nM
